Reference: article PMC7490411 (Signal Transduction and Targeted Therapy, 2020)
Like-named read-outs stand apart in the source and are kept apart here.

What was measured:
MET(Y1235D) = experiment: KINOMEscan; assay type: binding; details: 1000 nM
BTK = target: T1, BTK (Homo sapiens, UniProt Q06187); experiment: target-engagement assay with biotinylated probe CHMFL-BTK-85B in REC-1 cell; assay type: binding; details: 2 h, 1 μM
T1 construct: purchased Invitrogen (Carlsbad, CA, USA)
Experimental: Cell lysates from REC-1 cells were treated with different concentrations of covalent inhibitor CHMFL-BTK-85 on ice for 2 hours. 1 µM biotinylated covalent probe (CHMFL-BTK-85B) was then added and lysates were incubated for another 2 hours. Uninhibited BTK was then captured by adding 50 µl Streptavidin agarose resin suspensions (Pierce) followed by an incubation for 1 hour. The resin was then spun down, washed briefly with 1X PBS buffer, and then resuspended in protein sample buffer for Western blot analysis.

RAF1 = experiment: KINOMEscan; assay type: binding; details: 1000 nM
TEC = experiment: KINOMEscan; assay type: binding; details: 1000 nM
EGFR(G719C) = experiment: KINOMEscan; assay type: binding; details: 1000 nM
MLCK = experiment: KINOMEscan; assay type: binding; details: 1000 nM
PIK3CA = experiment: KINOMEscan; assay type: binding; details: 1000 nM
GRK7 = experiment: KINOMEscan; assay type: binding; details: 1000 nM
MKNK1 = experiment: KINOMEscan; assay type: binding; details: 1000 nM
CIT = experiment: KINOMEscan; assay type: binding; details: 1000 nM
PFTAIRE2 = experiment: KINOMEscan; assay type: binding; details: 1000 nM
[1] = in vivo pharmacokinetic study; parameters: species or system rats; details: male, Sprague-Dawley, rat, plasma; for MRT inf: read-out: MRT (0- ∞)
PFPK5(P.falciparum) = experiment: KINOMEscan; assay type: binding; details: 1000 nM
KIT(D816H) = experiment: KINOMEscan; assay type: binding; details: 1000 nM
468 kinases/mutants = experiment: KINOMEscan kinome-wide selectivity profiling; assay type: binding; details: 1 μM
Source text: Here, we report the discovery of a novel covalent BTK inhibitor, CHMFL-BTK-85 (abbreviated as compd. 85) (chemical structure shown in Fig. 1a), which achieves high potency against BTK and selectivity over other protein kinases. […] To further confirm that compd. 85 could covalently bind to wide-type native BTK in cell, we then conducted a target-engagement assay using the biotinylated analog of compd. 85, i.e., CHMFL-BTK-85B (Supplementary Fig. S2), in REC-1 cell which expresses native BTK kinase. […] To further investigate the selectivity of compd. 85 in the kinome, we then tested it among 468 kinases/mutants with KINOMEscan^TM technology.

[2] = system: ABL1(T315I)-nonphosphorylated; experiment: KINOMEscan; assay type: binding; details: 1000 nM
p38-gamma = experiment: KINOMEscan; assay type: binding; details: 1000 nM
EPHA7 = experiment: KINOMEscan; assay type: binding; details: 1000 nM
PHKG2 = experiment: KINOMEscan; assay type: binding; details: 1000 nM
PKAC-alpha = experiment: KINOMEscan; assay type: binding; details: 1000 nM
ALK = experiment: KINOMEscan; assay type: binding; details: 1000 nM
DYRK1B = experiment: KINOMEscan; assay type: binding; details: 1000 nM
FYN = experiment: KINOMEscan; assay type: binding; details: 1000 nM
[3] = system: ABL1(Q252H)-nonphosphorylated; experiment: KINOMEscan; assay type: binding; details: 1000 nM
SgK110 = experiment: KINOMEscan; assay type: binding; details: 1000 nM
PRKR = experiment: KINOMEscan; assay type: binding; details: 1000 nM
CDK4-cyclinD1 = experiment: KINOMEscan; assay type: binding; details: 1000 nM
CDK3 = experiment: KINOMEscan; assay type: binding; details: 1000 nM
GCN2(Kin.Dom.2,S808G) = experiment: KINOMEscan; assay type: binding; details: 1000 nM
MAPKAPK2 = experiment: KINOMEscan; assay type: binding; details: 1000 nM
TAK1 = experiment: KINOMEscan; assay type: binding; details: 1000 nM
PAK6 = experiment: KINOMEscan; assay type: binding; details: 1000 nM
ERK5 = experiment: KINOMEscan; assay type: binding; details: 1000 nM
ARK5 = experiment: KINOMEscan; assay type: binding; details: 1000 nM
ACVRL1 = experiment: KINOMEscan; assay type: binding; details: 1000 nM
PRKG2 = experiment: KINOMEscan; assay type: binding; details: 1000 nM
ABL1-phosphorylated = experiment: KINOMEscan; assay type: binding; details: 1000 nM
CDK4-cyclinD3 = experiment: KINOMEscan; assay type: binding; details: 1000 nM
ERBB3 = experiment: KINOMEscan; assay type: binding; details: 1000 nM
LRRK2 = experiment: KINOMEscan; assay type: binding; details: 1000 nM
[4] = system: TYK2(JH2domain-pseudokinase); experiment: KINOMEscan; assay type: binding; details: 1000 nM
AURKA = experiment: KINOMEscan; assay type: binding; details: 1000 nM
MLK3 = experiment: KINOMEscan; assay type: binding; details: 1000 nM
KIT(A829P) = experiment: KINOMEscan; assay type: binding; details: 1000 nM
MKK7 = experiment: KINOMEscan; assay type: binding; details: 1000 nM

T1 sequence (Q06187 whole entry): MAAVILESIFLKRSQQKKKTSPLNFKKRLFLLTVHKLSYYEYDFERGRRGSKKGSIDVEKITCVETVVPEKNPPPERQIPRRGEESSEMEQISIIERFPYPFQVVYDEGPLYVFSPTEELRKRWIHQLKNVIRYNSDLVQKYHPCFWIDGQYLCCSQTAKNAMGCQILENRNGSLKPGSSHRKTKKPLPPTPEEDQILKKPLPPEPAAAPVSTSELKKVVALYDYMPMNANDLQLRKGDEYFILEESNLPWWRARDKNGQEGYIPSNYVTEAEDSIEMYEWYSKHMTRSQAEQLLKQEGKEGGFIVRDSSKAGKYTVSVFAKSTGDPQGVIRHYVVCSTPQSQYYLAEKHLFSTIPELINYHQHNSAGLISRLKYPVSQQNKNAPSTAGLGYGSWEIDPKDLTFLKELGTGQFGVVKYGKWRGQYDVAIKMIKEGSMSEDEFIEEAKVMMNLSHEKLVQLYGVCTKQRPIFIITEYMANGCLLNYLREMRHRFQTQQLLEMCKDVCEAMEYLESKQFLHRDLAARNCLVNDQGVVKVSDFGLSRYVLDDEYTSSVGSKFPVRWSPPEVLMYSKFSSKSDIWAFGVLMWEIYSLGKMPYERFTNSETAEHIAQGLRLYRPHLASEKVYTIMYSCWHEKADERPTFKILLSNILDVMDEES

C=CC(=O)Nc1cc(Nc2cc(-c3cccc(NC(=O)c4cc5c(s4)CCCC5)c3C)cn(C)c2=O)ccc1N1CCN(CC)CC1 [CHMFL-BTK-85]
Percent Control (MET(Y1235D)): 97%
covalent labelling of BTK in competition with CHMFL-BTK-85B (BTK): almost completely covalently label all of the available BTK
Percent Control (RAF1): 88%
Percent Control (TEC): 100%
Percent Control (EGFR(G719C)): 81%
Percent Control (MLCK): 100%
Percent Control (PIK3CA): 82%
Percent Control (GRK7): 100%
Percent Control (MKNK1): 100%
Percent Control (CIT): 95%
Percent Control (PFTAIRE2): 99%
AUC(0-inf) ([1]; iv, Rats, I.V. 1mg/kg): 766 ± 261 ng·h/mL
AUC(0-t) ([1]; iv, Rats, I.V. 1mg/kg): 747 ± 263 ng·h/mL
Cmax ([1]; iv, Rats, I.V. 1mg/kg): 1080 ± 390 ng/mL
Tmax ([1]; iv, Rats, I.V. 1mg/kg): 0.02 h
half-life ([1]; iv, Rats, I.V. 1mg/kg): 96 ± 18 min
MRT inf ([1]; iv, Rats, I.V. 1mg/kg): 1.6 ± 0.2 h
AUC(0-inf) ([1]; po, Rats, P.O. 10mg/kg): 2160 ± 474 ng·h/mL
Cmax ([1]; po, Rats, P.O. 10mg/kg): 296 ± 67 ng/mL
Tmax ([1]; po, Rats, P.O. 10mg/kg): 6 h
bioavailability ([1]; po, Rats, P.O. 10mg/kg): 29%
half-life ([1]; po, Rats, P.O. 10mg/kg): 174 min
MRT inf ([1]; po, Rats, P.O. 10mg/kg): 6.5 ± 0.1 h
AUC(0-t) ([1]; rats, oral administration at 10 mg/kg): 2140 ng·h/mL
Percent Control (PFPK5(P.falciparum)): 100%
Percent Control (KIT(D816H)): 100%
S Score (1) (468 kinases/mutants): 0.00
Percent Control [2]: 94%
Percent Control (p38-gamma): 62%
Percent Control (EPHA7): 100%
Percent Control (PHKG2): 100%
Percent Control (PKAC-alpha): 100%
Percent Control (ALK): 86%
Percent Control (DYRK1B): 99%
Percent Control (FYN): 74%
Percent Control [3]: 84%
Percent Control (SgK110): 92%
Percent Control (PRKR): 49%
Percent Control (CDK4-cyclinD1): 100%
Percent Control (CDK3): 86%
Percent Control (GCN2(Kin.Dom.2,S808G)): 75%
Percent Control (MAPKAPK2): 86%
Percent Control (TAK1): 100%
Percent Control (PAK6): 100%
Percent Control (ERK5): 100%
Percent Control (ARK5): 97%
Percent Control (ACVRL1): 100%
Percent Control (PRKG2): 95%
Percent Control (ABL1-phosphorylated): 72%
Percent Control (CDK4-cyclinD3): 88%
Percent Control (ERBB3): 95%
Percent Control (LRRK2): 100%
Percent Control [4]: 100%
Percent Control (AURKA): 92%
Percent Control (MLK3): 91%
Percent Control (KIT(A829P)): 92%
Percent Control (MKK7): 99%
